For one experiment, the target named is T1, Coagulation factor XII (Homo sapiens, UniProt P00748).
T1 sequence (P00748 whole entry): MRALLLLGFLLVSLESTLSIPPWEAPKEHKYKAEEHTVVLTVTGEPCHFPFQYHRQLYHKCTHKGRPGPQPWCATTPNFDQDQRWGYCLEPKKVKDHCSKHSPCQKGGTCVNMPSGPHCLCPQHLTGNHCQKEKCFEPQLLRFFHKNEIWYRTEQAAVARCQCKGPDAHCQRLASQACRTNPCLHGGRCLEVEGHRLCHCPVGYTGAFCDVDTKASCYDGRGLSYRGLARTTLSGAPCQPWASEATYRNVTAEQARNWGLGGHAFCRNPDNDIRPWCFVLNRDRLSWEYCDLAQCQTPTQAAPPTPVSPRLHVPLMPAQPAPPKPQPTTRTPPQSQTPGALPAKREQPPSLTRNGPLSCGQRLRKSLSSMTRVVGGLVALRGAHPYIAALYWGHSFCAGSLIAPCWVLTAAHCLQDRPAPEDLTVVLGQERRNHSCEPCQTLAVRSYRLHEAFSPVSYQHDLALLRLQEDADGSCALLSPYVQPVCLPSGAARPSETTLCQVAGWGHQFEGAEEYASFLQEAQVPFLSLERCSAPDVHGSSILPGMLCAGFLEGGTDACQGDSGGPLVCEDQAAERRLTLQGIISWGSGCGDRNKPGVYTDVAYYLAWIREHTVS
As to the kind of experiment: Protease Inhibition Assay. The note with it: pH 7.4. As for the experimental part: (§1) The inhibition of plasma kallikrein and coagulation factor FXII was assessed by incubating the proteases with bicyclic peptide (twofold dilutions) and measuring the residual protease activity with fluorogenic substrates. The inhibition assays were performed in buffer ([…]) containing Tris HCl (pH 7.4, 10 mm), NaCl (150 mm), MgCl2 (10 mm), CaCl2 (1 mm), bovine serum albumin (BSA, 0.1 %, w/v), Triton-X100 (0.01%, v/v), and DMSO (5 %, v/v). Final concentrations of human plasma kallikrein (Innovative Research) and human FXII (Innovative Research)were 0.25 nm and 10 nm, respectively. The fluorogenic substrates Z-Phe-Arg-AMC (plasma kallikrein) and Z-Gly-Gly-Arg-AMC (FXII) were used at a final concentration of […]. Fluorescence intensity was measured with a Tecan Infinite M 200 Pro plate reader (λex= 368 nm, λem=468 nm).

The target of the next experiment is Plasma kallikrein (Human, UniProt P03952). Briefly: Protease Inhibition Assay. The settings on record: pH 7.4. The method, then: as §1
Plasma kallikrein, sequence (P03952 20-390 S143N limits assumed): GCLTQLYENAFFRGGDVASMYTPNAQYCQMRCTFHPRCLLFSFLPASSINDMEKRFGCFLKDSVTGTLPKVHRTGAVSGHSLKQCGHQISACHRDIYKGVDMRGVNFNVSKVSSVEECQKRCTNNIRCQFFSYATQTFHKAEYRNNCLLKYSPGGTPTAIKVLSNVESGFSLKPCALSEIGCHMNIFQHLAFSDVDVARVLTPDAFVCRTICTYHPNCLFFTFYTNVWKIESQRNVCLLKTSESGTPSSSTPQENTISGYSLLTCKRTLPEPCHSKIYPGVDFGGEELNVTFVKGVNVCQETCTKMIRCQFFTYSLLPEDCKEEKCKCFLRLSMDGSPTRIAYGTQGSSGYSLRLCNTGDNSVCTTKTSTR
Plasma kallikrein, sequence (P03952 391-638 limits assumed): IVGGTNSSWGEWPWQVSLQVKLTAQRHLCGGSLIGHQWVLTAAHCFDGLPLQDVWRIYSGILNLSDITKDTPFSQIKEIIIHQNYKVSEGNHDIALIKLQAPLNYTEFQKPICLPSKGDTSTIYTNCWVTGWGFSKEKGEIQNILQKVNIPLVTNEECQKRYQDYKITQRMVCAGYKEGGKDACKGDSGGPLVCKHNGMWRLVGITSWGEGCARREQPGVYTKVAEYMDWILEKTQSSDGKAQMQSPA

For the molecule `CSCc1nc(CSC)nc(CSC)n1` [TBMT-FX618 (16)], the Ki on Coagulation factor XII worked out at 1.22 µM; on Plasma kallikrein, 0.02 µM.

Molecule `CSCCC(=O)N1CN(C(=O)CCSC)CN(C(=O)CCSC)C1` [TATA-FXII618 (14)] displayed a Ki at Coagulation factor XII of 0.025 µM.

For `CSCC(=O)N1CN(C(=O)CSC)CN(C(=O)CSC)C1` [TATB-FXII618 (15)], the inhibition constant Ki on Coagulation factor XII amounted to 0.34 µM; on Plasma kallikrein, 0.54 µM.

In the case of `CSCc1cc(CSC)cc(CSC)c1` [TBMB-PK15 (10)], the Ki at Plasma kallikrein was determined as 0.0013 µM.

The values above are taken from BindingDB's records for doi:10.1002/cbic.201600612 (University of Glasgow, 2017).
